Reference: patent publication US9789202B2, “Method for treating cancer using an interferon alpha conjugate” (HANMI SCIENCE CO., LTD., priority 2011, dated 2017)

How the values were obtained:
[1] = tested on: human pancreatic cancer cells (Miapaca-2); assay: In vivo anti-cancer effect in nude mice subcutaneously transplanted with human pancreatic cancer cells (Miapaca-2); set-up: species or system Athymic BALB/c nude mice; details: Miapaca-2 xenograft, measured for 4 weeks; gemcitabine 40 mg/kg Q3D x 4 weeks i.v.; conjugate or PEG interferon alpha 30 mcg/kg QW x 4 weeks s.c.; combinations at the same doses
Method: 5-week old Athymic BALB/c nude mice were subcutaneously injected with 1×10^8/4 mL of Miapaca-2 cells cultured in vitro, and then cultured. Thereafter, the mice were subcutaneously transplanted with solid cancer having a size of 30 mm^2. Then, the mice were divided into 5 groups (G1, G2, G3, G4, G5) of seven mice each according to the size of cancer subcutaneously transplanted.
Single administrations of a control group (Vehicle), gemcitabine (40 mg/kg, Q3D, 3 weeks, intravenous injection), PEG-modified interferon alpha (30 mcg/kg, QW×4 weeks, subcutaneous injection), and interferon alpha conjugate of the present invention (30 mcg/kg, QW, 4 weeks, subcutaneous injection), and co-administration of gemcitabine (40 mg/kg, Q3D, 4 weeks, intravenous injection) and interferon alpha conjugate of the present invention (30 mcg/kg, QW, 4 weeks, subcutaneous injection) to the groups were performed. After administration of the experimental substances for 3 weeks, changes in the tumor size of each group were measured for 4 weeks, and tumor inhibition rate relative to the control group was determined (Table 5).

[2] = tested on: human pancreatic cancer cells (BxPC3); assay: In vivo anti-cancer effect in nude mice subcutaneously transplanted with human pancreatic cancer cells (BxPC3); set-up: species or system Athymic BALB/c nude mice; details: BxPC3 xenograft, 4 weeks; gemcitabine 30 mg/kg Q3D x 4 weeks i.v.; conjugate or PEG interferon alpha 30 mcg/kg QW x 4 weeks s.c.; combination at the same doses
Method: In order to measure the in vivo anti-cancer effect of the interferon alpha conjugate prepared in Example 1, changes in the tumor size were examined in the mice subcutaneously transplanted with human pancreatic cancer cells (BxPC3). 5-week old Athymic BALB/c nude mice were subcutaneously injected with 1×10^8/4 mL of BxPC3 cells cultured in vitro, and then cultured. […] After administration of the experimental substances, changes in the tumor size of each group were measured for 4 weeks, and tumor inhibition rate relative to the control group was determined (Table 3).

[3] = tested on: human pancreatic cancer cells (Panc-1); assay: In vivo anti-cancer effect in nude mice subcutaneously transplanted with human pancreatic cancer cells (Panc-1); set-up: species or system Athymic BALB/c nude mice; details: Panc-1 xenograft, measured for 4 weeks; gemcitabine 40 mg/kg Q3D x 3 weeks i.v.; conjugate or PEG interferon alpha 30 mcg/kg QW x 3 weeks s.c.; combination at the same doses
Method: 5-week old Athymic BALB/c nude mice were subcutaneously injected with 1×10^8/4 mL of Panc-1 cells cultured in vitro, and then cultured. Thereafter, the mice were subcutaneously transplanted with solid cancer having a size of 30 mm^2. Then, the mice were divided into 5 groups (G1, G2, G3, G4, G5) of six mice each according to the size of cancer subcutaneously transplanted.
Single administrations of a control group (Vehicle), gemcitabine (40 mg/kg, Q3D, 3 weeks, intravenous injection), PEG-modified interferon alpha (30 mcg/kg, QW×3 weeks, subcutaneous injection), and interferon alpha conjugate of the present invention (30 mcg/kg, QW, 3 weeks, subcutaneous injection), and co-administration of gemcitabine (40 mg/kg, Q3D, 3 weeks, intravenous injection) and interferon alpha conjugate of the present invention (30 mcg/kg, QW, 3 weeks, subcutaneous injection) to the groups were performed. After administration of the experimental substances for 3 weeks, changes in the tumor size of each group were measured for 4 weeks, and tumor inhibition rate relative to the control group was determined (Table 4).

[4] = tested on: pancreatic cancer; details: cited from earlier work
[5] = tested on: Daudi cells; assay: In vitro test on anti-proliferative efficacy in Daudi cells (CCK-8); type: cell-based, human; details: inhibition of Daudi cell proliferation, incubation 72 hours, CCK-8 absorbance at 450 nm
Method: Daudi cells were used, and RPMI1640 supplemented with 10% FBS and 10% PS was used as a culture medium and an experimental medium. Interferon alpha and interferon alpha conjugate of the present invention were diluted 4-fold with the experimental medium for 10 concentrations in 96-well round bottom plates. Each 50 μL of the diluted experimental medium was transferred to 96-well flat bottom plates. Daudi cells were centrifuged at 1000 rpm for 5 minutes, and then washed with 50 mL of PBS in a cornical tube. The cells were centrifuged at 1000 rpm for 5 minutes, and the experimental medium was added thereto, followed by counting the number of cells. Daudi cells were diluted to a concentration of 5×10^5 cell/mL, and then 100 μL was added to each well, followed by incubation at 37° C. for 72 hours. Then, 20 μL of CCK-8 was added to each well, and after 3 hours, absorbance was measured at 450 nm.
In vitro inhibitory effects of interferon alpha and interferon alpha conjugate of the present invention (long-acting interferon alpha conjugate) on cancer cell proliferation were examined by EC50 (Table 1, FIG. 1).

[6] = tested on: human ovarian cancer cells (SK-OV-3); assay: In vivo anti-cancer effect in nude mice subcutaneously transplanted with human ovarian cancer cells (SK-OV-3); set-up: species or system Athymic BALB/c nude mice; details: SK-OV-3 xenograft, 4 weeks, subcutaneous injection; interferon alpha 30 mcg/kg (Q1D*5)*4 weeks; PEG interferon alpha and conjugate 150 mcg/kg QW x 4 weeks
Method: In order to measure the in vivo anti-cancer effect of the interferon alpha conjugate prepared in Example 1, changes in the tumor size were examined in the mice subcutaneously transplanted with human ovarian cancer cells (SK-OV-3).
5-week old Athymic BALB/c nude mice were subcutaneously injected with 1×10^8/4 mL of SK-OV-3 cells cultured in vitro, and then cultured. Thereafter, the mice were subcutaneously transplanted with solid cancer having a size of 30 mm^2. Then, the mice were divided into 4 groups (G1, G2, G3, G4) of five mice each according to the size of cancer subcutaneously transplanted.
Single administrations of a control group (Vehicle), interferon alpha (30 mcg/kg, Q1D×5 times×4 weeks, subcutaneous injection), PEG-modified interferon alpha (150 mcg/kg, QW×4 weeks, subcutaneous injection), and interferon alpha conjugate of the present invention (150 mcg/kg, QW×4 weeks, subcutaneous injection) to the groups were performed. After administration of the experimental substances, changes in the tumor size of each group were measured for 4 weeks, and tumor inhibition rate relative to the control group was determined (Table 2).

## Nc1ccn([C@@H]2O[C@H](CO)[C@@H](O)C2(F)F)c(=O)n1 [Gemcitabine, 2′-deoxy-2′,2′-difluoro cytidine]
[1]
  Tumor inhibition rate (%, relative to vehicle): 17%
[2]
  Tumor inhibition rate (%, relative to vehicle): 20%
[3]
  Tumor inhibition rate (%, relative to vehicle): 60%
[4]; advanced pancreatic cancer, single administration
  median overall survival: 5.7 months
[4]; metastatic pancreatic cancer
  1-year survival rate of pancreatic cancer patients: 18%

## Interferon alpha: interferon alpha prepared according to Korean Patent No. 10-0360594; human interferon alpha-2b
[5]
  EC50: 0.0217 ng/mL
[6]
  Tumor inhibition rate (%, relative to vehicle): 63.84%
